The values below come from patent US20120071475A1, “UREA DERIVATIVES HAVING PI3K-INHIBITING ACTIVITY” (SHIONOGI & CO., LTD., priority 2009, published 2012).

Structures are written as SMILES.

For data set [1], the target named is T1, CYP3A4 (Homo sapiens, UniProt P08684).
T1 construct: host or cells: E. coli
Put plainly: CYP3A4 fluorescence MBI test. The data set is classed as in vitro ADME. To be noted: difference in IC50 with 0 or 30 minutes pre-reaction; CYP3A4 expressed in E. coli, substrate 7-BFC. Put shortly: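 E. coli-expressed CYP3A4 debenzylating 5.6 μmol/L 7-BFC to fluorescent 7-HFC (Ex 420/Em 535 nm) in K-Pi pH 7.4 at 25° C, 15 min reaction. NADPH pre-incubation of 0 or 30 min, with 10-fold dilution before reaction. IC50 from 0.625–20 μmol/L (6 points); (+) for an IC50 shift ≥5 μmol/L, (−) for ≤3 μmol/L.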

Data set [2] can be described thus: BA test (oral absorbability, bioavailability). The data set is classed as in vivo. The method, then: An experimental material and a method for examining oral absorbability
(1) Animals used: rats or mice were used. (2) Breeding condition: chow and sterilized tap water were allowed to be taken in freely. (3) Setting of a dosage and grouping: a predetermined dosage was administered orally or intravenously. Groups were formed as shown below. (A dosage varied depending on each compound)
Oral administration 1-30 mg/kg (n=2 to 3)
Intravenous administration 0.5-10 mg/kg (n=2 to 3)
(4) Preparation of administered liquid: In oral administration, a solution or suspension was administered. In intravenous administration, after solubilization, the administration was performed. (5) Method of Administration: In oral administration, compulsory administration to the stomach was conducted using an oral probe. In intravenous administration, administration from the caudal vein was conducted using a syringe with an injection needle. (6) Evaluation item: Blood was chronologically collected, and then the drug concentration in blood plasma was measured using a LC/MS/MS. (7) Statistical analysis: With regard to a shift in plasma concentration, the plasma concentration-time area under the curve (AUC) was calculated using a nonlinear least-squares program WinNonlin®. Bioavailability (BA) was calculated from the AUCs of the oral administration group and the intravenous administration group, respectively.

Data set [3] can be described thus: Metabolic stability test (pooled human liver microsome). It counts as in vitro ADME. The following applies: percentage of test compound remained after 30 minutes, pooled human liver microsome 0.5 mg protein/mL, 1 mmol/L NADPH, 37° C., compound 0.5 μM. The procedure, abridged: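 Pooled human liver microsomes (0.5 mg protein/mL) incubated with compound and 1 mmol/L NADPH at 37° C. in pH 7.4 Tris buffer for 0 or 30 min. Parent quantified by LC/MS/MS after methanol/acetonitrile quench; value is % remaining at 30 min versus 0 min.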

Data set [4] has as its target T2, human ether-a-go-go related gene (hERG) channel (Homo sapiens, UniProt Q12809).
T2 construct: expressed in transfected cells; host or cells: HEK293
Put plainly: hERG test (whole-cell patch-clamp, IKr in HEK293 cells). It counts as cell-based. The following applies: inhibition of maximum tail current (IKr), HEK293 cell expressing hERG, compound 1 μM, 10 minutes; 1 µM. Put shortly: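 hERG-expressing HEK293 cells, automated whole-cell patch clamp: hold −80 mV, +50 mV for 2 s, then −50 mV for 2 s to record IKr tail current. Compound in extracellular solution (pH 7.4) for 10 min at room temperature; inhibition of maximum tail current calculated versus pre-application and compared with 0.1% DMSO vehicle.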

The test system of data set [5] is AKT phosphorylation. Put plainly: AKT phosphorylation inhibitory activity in MCP-1 stimulated THP-1 cells (sandwich ELISA). It counts as cell-based, Human. The following applies: Homo sapiens, compound at 1 μmol/L, MCP-1 stimulation, read-out: AKT phosphorylation inhibition ratio. The procedure, abridged: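 THP-1 cells (6.7×10^6/mL in HBSS) were preincubated with compound at 1 μmol/L for 5 min at 37 °C, then stimulated for 60 s with HBSS containing 1.2 μg/mL MCP-1 and lysed. Phospho-Akt Ser473/AKT1 sandwich ELISA was read at A450. % inhibition: no compound = 100% activity, no MCP-1 = 0%.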

For data set [6], the target named is PI3Kγ (Homo sapiens, UniProt P48736). Put plainly: PI3Kγ inhibitory activity (PI3-kinase HTRF assay, inhibition ratio). To be noted: 0.5 h, compound at 10 μmol/L; read-out: PI3Kg Inhibition Ratio % (10 μM). The data set is classed as biochemical. Put shortly:
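Compound at 10 μmol/L preincubated 10 min with PI3Kγ and PIP2 substrate, then reacted with ATP for 30 minutes at room temperature; the compound, substrate and ATP figures as printed (40 μmol/L each) are solution concentrations. HTRF 665/620 nm ratio read after 18 hours. Inhibition ratio calculated against no-compound (100%) and no-enzyme (0%) controls.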

T1 sequence (P08684 whole entry): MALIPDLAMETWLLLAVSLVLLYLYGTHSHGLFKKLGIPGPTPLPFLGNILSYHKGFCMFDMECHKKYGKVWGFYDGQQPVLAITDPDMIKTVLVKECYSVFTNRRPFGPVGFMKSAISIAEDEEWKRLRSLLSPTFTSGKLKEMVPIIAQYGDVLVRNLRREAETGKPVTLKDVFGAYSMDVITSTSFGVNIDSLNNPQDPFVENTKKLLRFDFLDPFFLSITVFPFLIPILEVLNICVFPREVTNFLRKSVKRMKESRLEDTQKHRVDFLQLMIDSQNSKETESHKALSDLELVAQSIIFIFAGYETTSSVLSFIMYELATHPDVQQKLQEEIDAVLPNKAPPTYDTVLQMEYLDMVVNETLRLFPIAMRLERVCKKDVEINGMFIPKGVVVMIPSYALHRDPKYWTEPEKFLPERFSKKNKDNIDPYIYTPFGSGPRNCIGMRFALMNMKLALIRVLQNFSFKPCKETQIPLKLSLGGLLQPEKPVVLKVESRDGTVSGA
Chain of PI3Kγ (P48736 whole entry, species assumed): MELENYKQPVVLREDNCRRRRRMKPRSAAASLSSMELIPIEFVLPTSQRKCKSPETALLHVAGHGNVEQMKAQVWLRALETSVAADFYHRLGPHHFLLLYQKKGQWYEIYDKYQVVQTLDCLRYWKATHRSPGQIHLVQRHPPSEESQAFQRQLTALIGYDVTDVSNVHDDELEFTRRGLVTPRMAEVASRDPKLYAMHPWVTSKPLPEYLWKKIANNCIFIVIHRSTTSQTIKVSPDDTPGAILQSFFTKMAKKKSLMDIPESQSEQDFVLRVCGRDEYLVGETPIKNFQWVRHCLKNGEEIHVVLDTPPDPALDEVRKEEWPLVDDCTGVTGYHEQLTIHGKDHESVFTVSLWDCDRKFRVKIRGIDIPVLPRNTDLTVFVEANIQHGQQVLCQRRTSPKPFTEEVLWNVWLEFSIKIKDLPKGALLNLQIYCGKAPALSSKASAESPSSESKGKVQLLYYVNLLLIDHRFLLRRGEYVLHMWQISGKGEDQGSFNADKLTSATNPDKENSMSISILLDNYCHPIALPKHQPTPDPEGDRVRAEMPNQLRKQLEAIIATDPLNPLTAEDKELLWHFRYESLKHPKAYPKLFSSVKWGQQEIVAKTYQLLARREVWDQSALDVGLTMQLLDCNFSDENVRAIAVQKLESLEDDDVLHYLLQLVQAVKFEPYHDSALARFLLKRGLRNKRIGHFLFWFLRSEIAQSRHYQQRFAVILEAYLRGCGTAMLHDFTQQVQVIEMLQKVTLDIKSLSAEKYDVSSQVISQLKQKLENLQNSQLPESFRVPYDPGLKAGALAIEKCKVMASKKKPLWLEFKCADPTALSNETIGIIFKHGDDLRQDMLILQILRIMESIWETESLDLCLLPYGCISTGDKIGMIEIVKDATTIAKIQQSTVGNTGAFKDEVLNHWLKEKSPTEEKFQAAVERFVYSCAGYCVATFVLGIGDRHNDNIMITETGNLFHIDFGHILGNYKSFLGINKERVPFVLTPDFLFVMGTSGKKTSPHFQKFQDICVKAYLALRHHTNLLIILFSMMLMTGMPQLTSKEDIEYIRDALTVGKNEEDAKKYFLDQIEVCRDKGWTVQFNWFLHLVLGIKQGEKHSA
T2 sequence (Q12809 whole entry): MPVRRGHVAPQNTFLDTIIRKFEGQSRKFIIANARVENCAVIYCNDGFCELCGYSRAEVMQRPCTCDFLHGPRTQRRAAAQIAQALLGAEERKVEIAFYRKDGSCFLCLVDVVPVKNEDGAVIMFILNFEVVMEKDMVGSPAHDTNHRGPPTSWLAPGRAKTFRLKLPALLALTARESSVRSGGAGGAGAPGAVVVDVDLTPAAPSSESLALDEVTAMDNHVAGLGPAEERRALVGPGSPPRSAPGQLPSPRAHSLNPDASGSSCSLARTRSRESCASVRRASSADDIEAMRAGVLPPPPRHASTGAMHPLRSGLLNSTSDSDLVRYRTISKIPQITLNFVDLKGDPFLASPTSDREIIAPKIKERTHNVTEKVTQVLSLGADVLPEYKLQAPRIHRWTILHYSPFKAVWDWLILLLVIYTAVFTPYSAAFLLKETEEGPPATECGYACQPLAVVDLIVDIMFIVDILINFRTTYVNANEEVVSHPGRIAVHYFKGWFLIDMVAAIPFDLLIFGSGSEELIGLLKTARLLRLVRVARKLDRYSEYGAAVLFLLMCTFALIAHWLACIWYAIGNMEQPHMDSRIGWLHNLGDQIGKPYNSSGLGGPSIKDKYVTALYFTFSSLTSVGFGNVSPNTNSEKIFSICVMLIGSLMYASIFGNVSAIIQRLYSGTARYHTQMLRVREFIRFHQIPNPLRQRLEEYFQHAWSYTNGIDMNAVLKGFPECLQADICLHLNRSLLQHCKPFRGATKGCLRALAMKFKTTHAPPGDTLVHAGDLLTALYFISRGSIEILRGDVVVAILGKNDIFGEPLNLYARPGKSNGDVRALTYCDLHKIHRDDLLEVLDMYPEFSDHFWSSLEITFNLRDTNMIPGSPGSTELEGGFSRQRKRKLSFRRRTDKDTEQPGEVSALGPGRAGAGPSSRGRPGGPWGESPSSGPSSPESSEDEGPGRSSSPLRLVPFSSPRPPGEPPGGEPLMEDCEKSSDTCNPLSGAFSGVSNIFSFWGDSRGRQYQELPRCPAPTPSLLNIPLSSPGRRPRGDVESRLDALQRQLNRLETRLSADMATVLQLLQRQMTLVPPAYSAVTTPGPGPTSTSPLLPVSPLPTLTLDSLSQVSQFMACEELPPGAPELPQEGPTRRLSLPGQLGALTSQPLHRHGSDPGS

With `COc1cc(N2CCc3nc(NC(=O)Nc4ccccc4C(=O)NC(C)C)sc3C2)ccn1` [Compound I-52], the MBI result in data set [1] was “(−) (When 3 μmol/L or less, the compound is shown as (−))”. Also, the “BA (Rat, 1 mg/kg, Methylcellulose suspension Oral Administration)” value in data set [2] stood at 40.9%.

Turning to `COc1cc(N2CCc3nc(NC(=O)Nc4ccccc4C(=O)NC(C)C(O)C(F)(F)F)sc3C2)nc(OC)n1` (stereo not drawn) [Compound I-138], the “hLMS_ox(at 0.5 μM) %” value in data set [3] is given as 82.6%. Besides, the “hERG(at 1 μM) % Inhibition” value in data set [4] stood at 2.8%. For the same molecule, the inhibition at 1 µM in data set [5] is at least 95%. Moreover, in data set [6], the inhibition at 10 µM is at least 95%.
